Data: US7868176B2, “Salts of N-(4-fluorobenzyl)-N-(1-methylpiperidin-4-y1)-N′-(4-(2-methylpropyloxy)phenylmethyl)carbamide and their preparation” (ACADIA Pharmaceuticals, Inc., priority 2004, dated 2011)
In brackets after ≈: the same amount, converted by molar mass. Where a name gives a salt, the structure may show the parent alone.

Legend:
[1] = Approximate solubility in water; assay type: physicochemical
Experimental: The limit value of completely dissolved amount was determined. Determination of solubilities below 20 mg/l occurred with stirring suspensions in water, filtering off the excess, and measuring of the amount of substance in the filtrate.

[2] = Storage stability of the crystalline salt (HPLC area, Raman, appearance); assay type: physicochemical; details: for Storage stability (general statement): crystalline forms disclosed; for HPLC area reference value: reference value against which the HPLC area after 1 week at 60° C./75% r.h. is compared
Experimental: FT-Raman Spectroscopy: Bruker RFS100. Nd:YAG 1064 nm excitation, 100 mW laser power, Ge-detector, 64 scans, range 25-3500 cm^−1, […].
HPLC: HPLC measurement were carried out with a HP LC1090M, Column Symmetry C18, 3.0·150 mm.

[3] = approximate, double distilled water added stepwise to 5 mg substance, sonification
[4] = storage for 1 week at 100° C. in a closed ampoule
[5] = stored 1 week at 60° C. and about 75% r.h. in a closed container
[6] = stored 1 week at 60° C. and about 75% r.h. in an open container

CC(C)COc1ccc(CNC(=O)N(Cc2ccc(F)cc2)C2CCN(C)CC2)cc1 [Example 9, N-(4-fluorobenzyl)-N-(1-methylpiperidin-4-yl)-N′-(4-(2-methylpropyloxy)phenylmethyl)carbamide edisylate]
Solubility in water [1, 3]: 4 mg/mL (≈ 9.36 mM)
Storage stability (general statement) [2]: good storage stability
HPLC area reference value [2]: 96.8%
HPLC area after storage [2, 4]: 97.4%
State of crystalline product after storage [2, 4]: does not decompose
HPLC area after storage [2, 5]: 97.4%
State of crystalline powder after storage [2, 5]: remains a white powder

CC(C)COc1ccc(CNC(=O)N(Cc2ccc(F)cc2)C2CCN(C)CC2)cc1 [Example 4, N-(4-fluorobenzyl)-N-(1-methylpiperidin-4-yl)-N′-(4-(2-methylpropyloxy)phenylmethyl)carbamide maleate]
Solubility in water [1, 3]: > 500 mg/mL

CC(C)COc1ccc(CNC(=O)N(Cc2ccc(F)cc2)C2CCN(C)CC2)cc1.O=C(O)/C=C/C(=O)O [Example 3, N-(4-fluorobenzyl)-N-(1-methylpiperidin-4-yl)-N′-(4-(2-methylpropyloxy)phenylmethyl)carbamide fumarate]
Solubility in water [1, 3]: > 500 mg/mL
HPLC area reference value [2]: 99.4%
Changes on storage detected with Raman spectroscopy ([2]; storage at 75% r.h. in an open container): changes of the substance after 3 days
HPLC area after storage [2, 6]: 96.7%
State of crystalline powder after storage [2, 6]: substantially unchanged

CC(C)COc1ccc(CNC(=O)N(Cc2ccc(F)cc2)C2CCN(C)CC2)cc1 [Example 2, N-(4-fluorobenzyl)-N-(1-methylpiperidin-4-yl)-N′-(4-(2-methylpropyloxy)phenylmethyl)carbamide citrate]
Solubility in aqueous systems (general statement) ([1]; aqueous systems): very soluble
solubility at 2 min ([1]; thermodynamic from solid, approximate, double distilled water added stepwise to 5 mg substance, sonification): ~14 mg/mL
Storage stability (general statement) [2]: good storage stability
HPLC area reference value [2]: 99.9%
HPLC area after storage [2, 6]: 99.4%
State of crystalline powder after storage [2, 6]: substantially unchanged

CC(C)COc1ccc(CNC(=O)N(Cc2ccc(F)cc2)C2CCN(C)CC2)cc1 [Example 6, N-(4-fluorobenzyl)-N-(1-methylpiperidin-4-yl)-N′-(4-(2-methylpropyloxy)phenylmethyl)carbamide phosphate]
Solubility in water [1, 3]: > 250 mg/mL

CC(C)COc1ccc(CNC(=O)N(Cc2ccc(F)cc2)C2CCN(C)CC2)cc1 [Example 5, N-(4-fluorobenzyl)-N-(1-methylpiperidin-4-yl)-N′-(4-(2-methylpropyloxy)phenylmethyl)carbamide malate]
Solubility in water [1, 3]: > 500 mg/mL

CC(C)COc1ccc(CNC(=O)N(Cc2ccc(F)cc2)C2CCN(C)CC2)cc1 [Example 7, N-(4-fluorobenzyl)-N-(1-methylpiperidin-4-yl)-N′-(4-(2-methylpropyloxy)phenylmethyl)carbamide succinate]
Solubility in water [1, 3]: > 500 mg/mL
